The values that follow come from patent US11420958B2, “Aryl and heteroaryl substituted indole compounds” (BRISTOL-MYERS SQUIBB COMPANY, priority 2017, dated 2022).

What all share (assay type): cell-based
One assay has as its target human TLR7 (Homo sapiens (Human), UniProt Q9NYK1). Nature of the assay: TLR7 inhibition reporter assay (HEK-Blue, SEAP). The conditions noted are these: HEK-Blue cells overexpressing human TLR7, gardiquimod 7.5 μM stimulation. A digest of the protocol:
(§1)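 Cells are treated with compound over a 0.05 nM–50 μM final range for 30 min at room temperature before agonist addition: gardiquimod at 7.5 μM for TLR7, R848 at 15.9 μM for TLR8, ODN2006 at 5 nM for TLR9. SEAP is measured after 22 h at 37 °C.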
A general note: Reporter assays use an easily measured gene product as a stand-in for the process of interest.

The target of a further assay is human TLR9 (Homo sapiens (Human), UniProt Q9NR96). Nature of the assay: TLR9 inhibition reporter assay (HEK-Blue, SEAP). Particulars: HEK-Blue cells overexpressing human TLR9, ODN2006 5 nM stimulation. The essentials: as §1
Another assay concerns the target human TLR8 (Homo sapiens (Human), UniProt Q9NR97). Kind of assay: TLR8 inhibition reporter assay (HEK-Blue, SEAP). Particulars: HEK-Blue cells overexpressing human TLR8, R848 15.9 μM stimulation. A digest of the protocol: as §1

A word on the IC50: it is the concentration needed to halve the response being measured.

human TLR9, sequence (Q9NR96 26-1032): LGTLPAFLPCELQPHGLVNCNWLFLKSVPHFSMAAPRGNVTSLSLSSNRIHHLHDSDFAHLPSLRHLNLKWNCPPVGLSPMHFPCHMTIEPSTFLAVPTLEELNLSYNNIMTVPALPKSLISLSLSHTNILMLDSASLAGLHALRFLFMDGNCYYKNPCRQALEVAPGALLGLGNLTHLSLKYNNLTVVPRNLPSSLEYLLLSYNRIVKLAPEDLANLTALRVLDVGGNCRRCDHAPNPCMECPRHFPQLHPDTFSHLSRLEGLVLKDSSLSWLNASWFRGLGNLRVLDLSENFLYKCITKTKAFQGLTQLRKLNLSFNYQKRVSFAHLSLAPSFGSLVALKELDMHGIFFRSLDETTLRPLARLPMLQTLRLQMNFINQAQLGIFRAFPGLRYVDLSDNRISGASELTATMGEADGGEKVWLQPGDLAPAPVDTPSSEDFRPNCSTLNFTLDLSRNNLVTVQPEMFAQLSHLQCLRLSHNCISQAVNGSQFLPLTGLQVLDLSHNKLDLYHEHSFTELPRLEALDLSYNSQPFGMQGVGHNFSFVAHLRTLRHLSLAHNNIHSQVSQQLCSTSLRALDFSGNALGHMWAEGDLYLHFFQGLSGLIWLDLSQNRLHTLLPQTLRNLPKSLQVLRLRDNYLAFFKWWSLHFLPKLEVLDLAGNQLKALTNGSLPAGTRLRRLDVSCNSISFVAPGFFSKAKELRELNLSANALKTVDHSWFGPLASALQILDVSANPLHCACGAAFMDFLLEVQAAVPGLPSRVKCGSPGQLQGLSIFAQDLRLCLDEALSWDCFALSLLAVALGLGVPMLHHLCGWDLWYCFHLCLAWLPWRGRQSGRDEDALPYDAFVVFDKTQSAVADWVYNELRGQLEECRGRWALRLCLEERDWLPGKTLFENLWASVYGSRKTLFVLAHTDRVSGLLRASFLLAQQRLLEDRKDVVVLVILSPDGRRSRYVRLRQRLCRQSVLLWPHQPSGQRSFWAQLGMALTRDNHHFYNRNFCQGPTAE
human TLR8, sequence (Q9NR97 27-1041): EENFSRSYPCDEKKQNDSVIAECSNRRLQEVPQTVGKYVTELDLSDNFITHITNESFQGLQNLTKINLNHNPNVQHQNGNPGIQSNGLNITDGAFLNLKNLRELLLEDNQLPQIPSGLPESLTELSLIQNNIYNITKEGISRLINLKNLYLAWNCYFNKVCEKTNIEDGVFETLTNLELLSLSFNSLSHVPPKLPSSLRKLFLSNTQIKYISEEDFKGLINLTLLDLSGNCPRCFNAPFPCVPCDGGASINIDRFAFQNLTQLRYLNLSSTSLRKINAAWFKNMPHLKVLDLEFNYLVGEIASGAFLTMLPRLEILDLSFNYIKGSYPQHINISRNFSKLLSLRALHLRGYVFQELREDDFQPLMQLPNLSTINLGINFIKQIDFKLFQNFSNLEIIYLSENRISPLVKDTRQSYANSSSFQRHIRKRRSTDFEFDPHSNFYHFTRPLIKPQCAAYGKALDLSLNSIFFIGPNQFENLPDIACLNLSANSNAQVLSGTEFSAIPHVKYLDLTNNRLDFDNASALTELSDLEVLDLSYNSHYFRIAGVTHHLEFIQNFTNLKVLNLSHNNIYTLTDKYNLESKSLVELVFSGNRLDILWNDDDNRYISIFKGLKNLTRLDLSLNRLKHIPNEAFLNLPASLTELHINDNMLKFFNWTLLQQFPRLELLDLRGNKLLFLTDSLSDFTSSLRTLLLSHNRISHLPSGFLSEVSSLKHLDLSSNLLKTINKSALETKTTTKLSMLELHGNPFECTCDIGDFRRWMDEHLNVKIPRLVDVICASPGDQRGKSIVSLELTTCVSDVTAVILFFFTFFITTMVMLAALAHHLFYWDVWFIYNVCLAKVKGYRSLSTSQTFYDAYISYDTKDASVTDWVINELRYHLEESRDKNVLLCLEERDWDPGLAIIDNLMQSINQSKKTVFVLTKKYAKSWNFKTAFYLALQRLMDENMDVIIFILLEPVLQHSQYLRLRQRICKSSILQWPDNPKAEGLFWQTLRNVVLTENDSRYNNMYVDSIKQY
human TLR7, sequence (Q9NYK1 27-1049): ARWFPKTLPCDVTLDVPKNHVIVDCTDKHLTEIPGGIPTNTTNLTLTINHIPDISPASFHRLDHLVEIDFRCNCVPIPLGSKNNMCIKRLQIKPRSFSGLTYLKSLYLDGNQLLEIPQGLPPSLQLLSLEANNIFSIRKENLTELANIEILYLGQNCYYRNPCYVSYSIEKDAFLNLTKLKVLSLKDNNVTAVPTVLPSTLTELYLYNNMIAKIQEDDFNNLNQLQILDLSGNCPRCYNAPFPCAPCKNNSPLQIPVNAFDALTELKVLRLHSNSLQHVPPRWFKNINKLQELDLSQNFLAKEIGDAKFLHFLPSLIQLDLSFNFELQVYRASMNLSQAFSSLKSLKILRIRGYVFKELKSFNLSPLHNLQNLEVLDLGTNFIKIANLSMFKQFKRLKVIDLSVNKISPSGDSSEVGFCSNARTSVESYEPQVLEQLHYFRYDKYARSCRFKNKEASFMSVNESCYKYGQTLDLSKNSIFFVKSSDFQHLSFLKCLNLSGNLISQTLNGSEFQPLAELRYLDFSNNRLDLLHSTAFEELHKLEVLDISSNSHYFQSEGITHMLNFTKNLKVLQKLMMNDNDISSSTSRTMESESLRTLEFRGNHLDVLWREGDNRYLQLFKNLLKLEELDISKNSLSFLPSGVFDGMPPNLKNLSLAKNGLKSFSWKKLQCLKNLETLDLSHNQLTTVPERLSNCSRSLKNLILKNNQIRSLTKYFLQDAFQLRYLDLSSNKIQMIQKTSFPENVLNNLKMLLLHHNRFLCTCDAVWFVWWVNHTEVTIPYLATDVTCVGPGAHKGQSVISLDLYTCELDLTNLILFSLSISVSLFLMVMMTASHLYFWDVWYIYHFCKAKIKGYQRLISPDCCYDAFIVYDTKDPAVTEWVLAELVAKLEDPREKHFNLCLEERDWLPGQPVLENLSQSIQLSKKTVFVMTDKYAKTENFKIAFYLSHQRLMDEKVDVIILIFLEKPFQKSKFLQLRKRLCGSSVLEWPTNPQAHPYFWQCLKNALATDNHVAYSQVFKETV

Turning to `Cc1cc(-c2[nH]c3ccc(-c4nnc(C[C@@H]5CCCN5)o4)cc3c2C(C)C)ccn1` [Example 71, (S)-2-(3-isopropyl-2-(2-methylpyridin-4-yl)-1H-indol-5-yl)-5-(pyrrolidin-2-ylmethyl)-1,3,4-oxadiazole], the results for the IC50 against human TLR7, against human TLR9 and on human TLR8 were 39 nM, 6910 nM and 1.4 nM, respectively.
Turning to `COc1ccc(-c2[nH]c3ccc(-c4ccc(N5CCOCC5)nc4)cc3c2C(C)C)cc1OC` [Example 416, 4-(5-(2-(3,4-dimethoxyphenyl)-3-isopropyl-1H-indol-5-yl)pyridin-2-yl)morpholine], the IC50 on human TLR7 is 2290 nM; against human TLR9 it was > 50000 nM; at human TLR8 it was 71 nM.
Regarding `Cc1cc(-c2[nH]c3ccc(-c4cc(F)c5nc(C)cn5c4)cc3c2C(C)C)cc(C)n1` [Example 366, 6-(2-(2,6-dimethylpyridin-4-yl)-3-isopropyl-1H-indol-5-yl)-8-fluoro-2-methylimidazo[1,2-a]pyridine], the IC50 is 63 nM against human TLR7, 11500 nM on human TLR9 and 84 nM on human TLR8.
`Cc1cc(-c2[nH]c3ccc(-c4nnc(C5CCC(C(F)(F)F)CC5)o4)cc3c2C(C)C)ccn1` (stereo not drawn) [Example 78, 2-(3-isopropyl-2-(2-methylpyridin-4-yl)-1H-indol-5-yl)-5-(4-(trifluoromethyl)cyclohexyl)-1,3,4-oxadiazole]: the results for the concentration for half-maximal inhibition (IC50) against human TLR7, against human TLR9 and at human TLR8 were 2700 nM, > 50000 nM and 535 nM, respectively.
Turning to `Cc1cc(-c2[nH]c3ccc(-c4cccc(C(=O)N5CC6CNCC6C5)c4)cc3c2C(C)C)ccn1` (stereo not drawn) [Example 15, (hexahydropyrrolo[3,4-c]pyrrol-2(1H)-yl)(3-(3-isopropyl-2-(2-methylpyridin-4-yl)-1H-indol-5-yl)phenyl)methanone], the 50% inhibitory concentration (IC50) is 27 nM at human TLR7, 738 nM on human TLR9 and 6.8 nM on human TLR8.
On to `CC(C)c1c(-c2ccnc3[nH]ncc23)[nH]c2ccc(-c3nnc(CN4CCNC(=O)C4)o3)cc12` [Example 156, 4-((5-(3-isopropyl-2-(1H-pyrazolo[3,4-b]pyridin-4-yl)-1H-indol-5-yl)-1,3,4-oxadiazol-2-yl)methyl)piperazin-2-one], for which the IC50 at human TLR7 was 1410 nM; on human TLR9, > 50000 nM; against human TLR8, 212 nM.
For `COc1ccc(-c2[nH]c3ccc(-c4ccc(-c5cccc(CN(C)C)c5)cc4)cc3c2C(C)C)cc1OC` [Example 374, 1-(4′-(2-(3,4-dimethoxyphenyl)-3-isopropyl-1H-indol-5-yl)-[1,1′-biphenyl]-3-yl)-N,N-dimethylmethanamine], the IC50 was 428 nM against human TLR7, > 50000 nM at human TLR9 and 317 nM at human TLR8.
The like results for `Cc1cc(-c2[nH]c3ccc(-c4nnc([C@@H]5CSCN5)o4)cc3c2C(C)C)ccn1` [Example 68, (R)-2-(3-isopropyl-2-(2-methylpyridin-4-yl)-1H-indol-5-yl)-5-(thiazolidin-4-yl)-1,3,4-oxadiazole] were, in that order, 320 nM, 31600 nM and 41 nM.
Regarding `COc1ccc(-c2[nH]c3ccc(-c4ccc(NC5CCCNC5)cc4)cc3c2C(C)C)cc1OC` (stereo not drawn) [Example 402, N-(4-(2-(3,4-dimethoxyphenyl)-3-isopropyl-1H-indol-5-yl)phenyl)piperidin-3-amine], the IC50 on human TLR7 was determined as 200 nM; on human TLR9, 2320 nM; on human TLR8, 21 nM.
For `CNC(=O)CN1CCc2cc(-c3ccc4[nH]c(-c5ccnc(C)c5)c(C(C)C)c4c3)sc2C1` [Example 315, 2-(2-(3-isopropyl-2-(2-methylpyridin-4-yl)-1H-indol-5-yl)-4,7-dihydrothieno[2,3-c]pyridin-6(5H)-yl)-N-methylacetamide] the same measures were 93 nM, 47400 nM and 17 nM.
Consider `COc1ccc(-c2[nH]c3ccc(-c4cccc(C(=O)N5CC6CNCC6C5)c4)cc3c2C(C)C)cc1OC` (stereo not drawn) [Example 9, (3-(2-(3,4-dimethoxyphenyl)-3-isopropyl-1H-indol-5-yl)phenyl)(hexahydropyrrolo[3,4-c]pyrrol-2(1H)-yl)methanone], for which the figures for the IC50 on human TLR7, against human TLR9 and against human TLR8 were 108 nM, 744 nM and 4.1 nM, respectively.
For the compound `COc1ccc(-c2[nH]c3ccc(-c4nnc([C@@H]5CCCNC5)o4)cc3c2CC(F)(F)F)cc1OC` [Example 56, (R)-2-(2-(3,4-dimethoxyphenyl)-3-(2,2,2-trifluoroethyl)-1H-indol-5-yl)-5-(piperidin-3-yl)-1,3,4-oxadiazole], the IC50 against human TLR7 was 47 nM; on human TLR9, 1270 nM; against human TLR8 it was 25 nM.
Regarding `Cc1cc(-c2[nH]c3ccc(-c4nc(C5CCNCC5)c[nH]4)cc3c2C(C)C)ccn1` [Example 189, 3-isopropyl-2-(2-methylpyridin-4-yl)-5-(4-(piperidin-4-yl)-1H-imidazol-2-yl)-1H-indole], the IC50 against human TLR7 is 175 nM; on human TLR9, 921 nM; against human TLR8 it was 43 nM.
With `COc1ccc(-c2[nH]c3ccc(-c4cccc(C(=O)N5CC[C@@H](O)C5)c4)cc3c2CC(F)(F)F)cc1OC` [Example 34, (R)-(3-(2-(3,4-dimethoxyphenyl)-3-(2,2,2-trifluoroethyl)-1H-indol-5-yl)phenyl)(3-hydroxypyrrolidin-1-yl)methanone], the values for the half-maximal inhibitory concentration (IC50) against human TLR7, against human TLR9 and at human TLR8 were 776 nM, 14700 nM and 199 nM, respectively.
On to `COc1ccc(-c2[nH]c3ccc(-c4ccc(OCCCN(C)C)nc4)cc3c2C(C)C)cc1OC` [Example 421, 3-((5-(2-(3,4-dimethoxyphenyl)-3-isopropyl-1H-indol-5-yl)pyridin-2-yl)oxy)-N,N-dimethylpropan-1-amine], for which the IC50 against human TLR7 came out at 63 nM; against human TLR9 it was 2750 nM; against human TLR8, 12 nM.
The like results for `COc1ccc(-c2[nH]c3ccc(-c4nnc(C5CCN(C(=O)CN(C)C)CC5)o4)cc3c2C(C)C)cc1OC` [Example 3, 1-(4-{5-[2-(3,4-dimethoxyphenyl)-3-(propan-2-yl)-1H-indol-5-yl]-1,3,4-oxadiazol-2-yl}piperidin-1-yl)-2-(dimethylamino)ethan-1-one] were, in that order, 28 nM, 1230 nM and 13 nM.
As to `Cc1cc(-c2[nH]c3ccc(-c4nnc(C5CN6CCC5CC6)o4)cc3c2C(C)C)ccn1` (stereo not drawn) [Example 213, 2-(3-isopropyl-2-(2-methylpyridin-4-yl)-1H-indol-5-yl)-5-(quinuclidin-3-yl)-1,3,4-oxadiazole], the figures for the concentration for half-maximal inhibition (IC50) against human TLR7, on human TLR9 and against human TLR8 were 47 nM, 655 nM and 3.3 nM, respectively.
As for `CCc1c(-c2ccc(OC)c(OC)c2)[nH]c2ccc(-c3noc([C@@H](N)CCCN)n3)cc12` [Example 463, (S)-1-(3-(2-(3,4-dimethoxyphenyl)-3-ethyl-1H-indol-5-yl)-1,2,4-oxadiazol-5-yl)butane-1,4-diamine], the IC50 turned out to be 772 nM against human TLR7, 7150 nM against human TLR9 and 126 nM at human TLR8.
As for `CC(C)c1c(-c2ccnc3[nH]ncc23)[nH]c2ccc(-c3nnc(CN4CCOCC4)o3)cc12` [Example 152, 4-((5-(3-isopropyl-2-(1H-pyrazolo[3,4-b]pyridin-4-yl)-1H-indol-5-yl)-1,3,4-oxadiazol-2-yl)methyl)morpholine], the concentration for half-maximal inhibition (IC50) at human TLR7 was 2330 nM; against human TLR9, > 50000 nM; against human TLR8 it was 471 nM.
For the compound `CCc1c(-c2ccc(OC)c(OC)c2)[nH]c2ccc(-c3noc(C4CCNC4)n3)cc12` (stereo not drawn) [Example 450, 3-(2-(3,4-dimethoxyphenyl)-3-ethyl-1H-indol-5-yl)-5-(pyrrolidin-3-yl)-1,2,4-oxadiazole], the IC50 against human TLR7 was 121 nM; on human TLR9, 1690 nM; on human TLR8, 19 nM.
For `COc1ccc(-c2[nH]c3ccc(-c4nnc(C(=O)NCCCn5ccnc5)o4)cc3c2C(C)C)cc1OC` [Example 101, N-(3-(1H-imidazol-1-yl)propyl)-5-(2-(3,4-dimethoxyphenyl)-3-isopropyl-1H-indol-5-yl)-1,3,4-oxadiazole-2-carboxamide] the same measures were 55 nM, 3290 nM and 14 nM.
For the compound `CNC(=O)CN1CCC(c2nnc(-c3ccc4[nH]c(-c5ccc(OC)c(OC)c5)c(C(C)C)c4c3)[nH]2)CC1` [Example 130, 2-(4-(5-(2-(3,4-dimethoxyphenyl)-3-isopropyl-1H-indol-5-yl)-4H-1,2,4-triazol-3-yl)piperidin-1-yl)-N-methylacetamide], the IC50 stood at 27 nM against human TLR7, 7000 nM against human TLR9 and 209 nM on human TLR8.
Turning to `CC(C)c1c(-c2ccnc3[nH]ncc23)[nH]c2ccc(-c3cccc(S(N)(=O)=O)c3)cc12` [Example 415, 3-(3-isopropyl-2-(1H-pyrazolo[3,4-b]pyridin-4-yl)-1H-indol-5-yl)benzenesulfonamide], the IC50 was 820 nM at human TLR7, > 50000 nM on human TLR9 and 56 nM at human TLR8.
Take `COc1ccc(-c2[nH]c3ccc(-c4nnc(C[C@H]5CCCCN5)o4)cc3c2C(C)C)cc1OC` [Example 54, (R)-2-(2-(3,4-dimethoxyphenyl)-3-isopropyl-1H-indol-5-yl)-5-(piperidin-2-ylmethyl)-1,3,4-oxadiazole]: the IC50 against human TLR7 is 75 nM; against human TLR9, 706 nM; at human TLR8, 3.9 nM.
Turning to `Cc1cc(-c2[nH]c3ccc(-c4nnc(C5CCCN(C)C5)o4)cc3c2C(C)C)ccn1` (stereo not drawn) [Example 169, 2-(3-isopropyl-2-(2-methylpyridin-4-yl)-1H-indol-5-yl)-5-(1-methylpiperidin-3-yl)-1,3,4-oxadiazole], the IC50 is 27 nM against human TLR7, 564 nM on human TLR9 and 1.8 nM against human TLR8.
